Patent publication US20050143427A1, “[B]-fused bicyclic proline derivatives and their use for treating arthritic conditions” (priority 2003, published 2005)

Assays:
[1] = target: pig alpha-2-delta receptor 2 (A2DR2) (UniProt A0A8W4FF87); assay: [3H]Gabapentin scintillant proximity A2DR2 binding assay (A2DR2 SPA, Biological Method 5); settings: displacement of [3H]-gabapentin
Description: (§1) Recombinant HEK 293 cells expressing pig A2DR1 and A2DR2 subunits were grown under normal cell culture conditions (RPMI-1640 media with 10% FBS, 200 μg G418, and 1% penicillin/streptomycin 1t 37° C. with 5% CO2) until reaching confluency in T-75 flasks, at which time they were harvested. The harvested cells were suspended in ice-cold 5 mM Tris/5 mM ethylenediaminetetraacetic acid (“EDTA”) buffer, pH 7.4 (“TE buffer”) containing phenylmethylsulfonyl fluoride (“PMSF”) (0.1 mM) and Roche Complete Protease Inhibitor Cocktail, and allowed to sit on ice for 30 minutes. The cells were broken by sonication using 20 bursts, 40-50 cycles, and then centrifuged at 3000×g for 10 minutes. The resulting supernatant was transferred to a new tube and centrifuged at 50,000×g for 30 minutes. The resulting pellet was resuspended in 10 mM HEPES buffer, pH 7.4, homogenized, and stored at—80° C. The A2DR1 or A2DR2 membrane protein concentration was determined by the Pierce BCA method using bovine serum albumin (“BSA”) as the standard.
(§2) The [^3H]gabapentin SPA binding assay was performed in Costar 3632 96-well, clear bottom assay plates using Wheatgerm agglutinin beads (Amersham Pharmacia Biotech). Pig A2DR1 or A2DR2 membranes (10-20 μg protein per well) prepared above in Step (1) and SPA beads (0.5 mg per well) were mixed with 30 nM [^3H]gabapentin (52 Ci/mmol; Amersham Pharmacia Biotech) in 10 mM HEPES/10 mM MgSO4 assay buffer, pH 7.4 using KOH. The final well volume was 200 μL and non-specific binding was determined in the presence of 10 μM unlabeled pregabalin. The final mixture containing A2DR1 or A2DR2 membrane protein incubated with SPA beads, test compounds, and [^3H]gabapentin was incubated at room temperature for 15-24 hours, and the plates were then counted on a Wallace Trilux 1450 Microbeta scintillation counter. Step (3): Determination of IC50 values
(§3) Curve fitting and IC50 values were calculated using a four-parameter, non-linear regression equation from GraphPad Prism 3.0 software, while Ki values were determined using the equation of Chang and Prussoff.

[2] = target: pig alpha-2-delta receptor 1 (A2DR1) (Sus scrofa, UniProt A0A287BIN3); assay: [3H]Gabapentin scintillant proximity A2DR1 binding assay (A2DR1 SPA, Biological Method 5); settings: displacement of [3H]-gabapentin
Description: as §1, §2, §3

[3] = test system: MIA Rat (monosodium iodoacetate-induced osteoarthritis, right knee joint); assay: Monosodium iodoacetate-induced osteoarthritis in rat model of joint cartilage damage (MIA Rat); assay type: in vivo; settings: 10 mg/kg/day via osmotic pump, 2-week MIA study, Day 14, rat
Excerpt: One end result of the induction of osteoarthritis in this model, as determined by histologic analysis, is the development of an osteoarthritic condition within the affected joint, as characterized by the loss of Toluidine blue staining and formation of osteophytes. Associated with the histologic changes is a concentration-dependent degradation of joint cartilage, as evidenced by affects on hind-paw weight distribution of the limb containing the affected joint, the presence of increased amounts of proteoglycan or hydroxyproline in the joint upon biochemical analysis, or histopathological analysis of the osteoarthritic lesions.
The invention compounds typically are not effective for relieving joint pain when administered in an acute model, such as the instant MIA Rat model, which has a duration of just 14 or 28 days.
Generally, In the MIA Rat model on Day 0, the hind-paw weight differential between the right arthritic joint and the left healthy joint of male Wistar rats (150 g) are determined with an incapacitance tester, model 2KG (Linton Instrumentation, Norfolk, United Kingdom). The incapacitance tester has a chamber on top with an outwardly sloping front wall that supports a rat's front limbs, and two weight sensing pads, one for each hind paw, that facilitates this determination. Then the rats are anesthetized with isofluorine, and the right, hind leg knee joint is injected with 1.0 mg of mono-iodoacetate (“MIA”) through the infrapatellar ligament. Injection of MIA into the joint results in the inhibition of glycolysis and eventual death of surrounding chondrocytes. The rats are further administered either an invention compound or vehicle (in the instant case, water) daily for 14 days or 28 days.
The invention compound is typically administered at a dose of 30 mg of per kilogram of rat per day (30 mg/kg/day), but may be administered at other doses such as, for example, 10 mg/kg/day, 60 mg/kg/day, 90-mg/kg/day, or 100 mg/kg/day according to the requirements of the invention compound being studied. It is well within the level of ordinary skill in the pharmaceutical arts to determine a proper dosage of an invention compound in this model.
Administration of an invention compound in this model is optionally by oral administration or by intravenous administration via an osmotic pump. After 7 and 14 days for a two week study, or 7, 14, and 28 days for a four week study, the hind-paw weight distribution is again determined. Typically, the animals administered vehicle alone place greater weight on their unaffected left hind paw than on their right hind paw, while animals administered an invention compound show a more normal (i.e., more like a healthy animal) weight distribution between their hind paws. This change in weight distribution was proportional to the degree of joint cartilage damage. Percent inhibition of a change in hind paw joint function is calculated as the percent change in hind-paw weight distribution for treated animals versus control animals. For example, for a two week study, [formula] wherein: ΔWC is the hind-paw weight differential between the healthy left limb and the arthritic limb of the control animal administered vehicle alone, as measured on Day 14; and • ΔWG is the hind-paw weight differential between the healthy left limb and the arthritic limb of the animal administered an invention compound as measured on Day 14.
In order to measure biochemical or histopathological end points in the MIA Rat model, some of the animals in the above study may be sacrificed, and the amounts of free proteoglycan in both the osteoarthritic right knee joint and the contralateral left knee joint may be determined by biochemical analysis. The amount of free proteoglycan in the contralateral left knee joint provides a baseline value for the amount of free proteoglycan in a healthy joint. […]

[4] = target: T1, alpha-2-delta receptor 2 (A2DR2) (Homo sapiens, UniProt Q9NY47); assay: [3H]Gabapentin A2DR2 binding assay (filter, Biological Method 4); settings: displacement of [3H]-gabapentin
T1 construct: expressed in transfected cells; host or cells: HEK 293 (membrane preparation)
Excerpt: (§4) HEK 293 recombinant cells expressing A2DR1 or A2DR2 protein are harvested and washed in phosphate buffered saline (“PBS”). The cells are centrifuged and resuspended in tris(hydroxymethyl)aminomethane-ethylenediaminetetraacetic acid (“Tris-EDTA” or “TE”) buffer containing Roche Complete Protease Inhibitor Cocktail. The cells are homogenized, centrifuged at 3000×g, and the supernatant centrifuged again at 50,000×g. The resulting pellet is resuspended and homogenized in TE. Following determination of A2DR1 or A2DR2 protein concentration, aliquots are stored at −70° C. until the day of testing (membrane preparation may be used for at least 6 months).
(§5) In one version, the binding assay is set up in a 96-well format using deep-well polypropylene plates. In a total volume of 500 μL, the following additions are made: 250 μL buffer [[…] N-2-hydroxyethylpiperazine-N′-2-ethanesulfonic acid (“HEPES”), pH 7.4], 25 μL [3H]gabapentin (10 nM final concentration), 200 μL thawed tissue membrane preparation from Step (1) (˜40 μg protein), and 25 μL of test compound at 7 test dilutions (for example, 0.001, 0.01, 0.03, 0.1, 0.3, 1.0, and 10 μM concentrations). Non-specific binding for each plate is determined by the addition of 10 μM of pregabalin instead of test compound in a few of the 96 wells. Following incubation for 45 minutes at 21° C., the contents of the wells are filtered under vacuum onto glass filter/B (“GF/B”) filter mats and then washed 4×1 mL with chilled 50 mM tris(hydroxymethyl)aminomethane (“Tris”) HCl, pH 6.9. The mats are placed into plastic pouches, scintillation cocktail is added, the pouches are sealed, and radioactivity for each sample is counted.
(§6) Specific binding values for each concentration are transformed and then analyzed by a 4-parameter nonlinear regression equation provided by Prism graphics software by Graph Pad to determine IC50 values by conventional means.

[5] = target: alpha-2-delta receptor 1 (A2DR1) (Homo sapiens, UniProt P54289); assay: [3H]Gabapentin A2DR1 binding assay (filter, Biological Method 4); settings: displacement of [3H]-gabapentin
Excerpt: as §4, §5, §6

T1 sequence (Q9NY47 19-1150): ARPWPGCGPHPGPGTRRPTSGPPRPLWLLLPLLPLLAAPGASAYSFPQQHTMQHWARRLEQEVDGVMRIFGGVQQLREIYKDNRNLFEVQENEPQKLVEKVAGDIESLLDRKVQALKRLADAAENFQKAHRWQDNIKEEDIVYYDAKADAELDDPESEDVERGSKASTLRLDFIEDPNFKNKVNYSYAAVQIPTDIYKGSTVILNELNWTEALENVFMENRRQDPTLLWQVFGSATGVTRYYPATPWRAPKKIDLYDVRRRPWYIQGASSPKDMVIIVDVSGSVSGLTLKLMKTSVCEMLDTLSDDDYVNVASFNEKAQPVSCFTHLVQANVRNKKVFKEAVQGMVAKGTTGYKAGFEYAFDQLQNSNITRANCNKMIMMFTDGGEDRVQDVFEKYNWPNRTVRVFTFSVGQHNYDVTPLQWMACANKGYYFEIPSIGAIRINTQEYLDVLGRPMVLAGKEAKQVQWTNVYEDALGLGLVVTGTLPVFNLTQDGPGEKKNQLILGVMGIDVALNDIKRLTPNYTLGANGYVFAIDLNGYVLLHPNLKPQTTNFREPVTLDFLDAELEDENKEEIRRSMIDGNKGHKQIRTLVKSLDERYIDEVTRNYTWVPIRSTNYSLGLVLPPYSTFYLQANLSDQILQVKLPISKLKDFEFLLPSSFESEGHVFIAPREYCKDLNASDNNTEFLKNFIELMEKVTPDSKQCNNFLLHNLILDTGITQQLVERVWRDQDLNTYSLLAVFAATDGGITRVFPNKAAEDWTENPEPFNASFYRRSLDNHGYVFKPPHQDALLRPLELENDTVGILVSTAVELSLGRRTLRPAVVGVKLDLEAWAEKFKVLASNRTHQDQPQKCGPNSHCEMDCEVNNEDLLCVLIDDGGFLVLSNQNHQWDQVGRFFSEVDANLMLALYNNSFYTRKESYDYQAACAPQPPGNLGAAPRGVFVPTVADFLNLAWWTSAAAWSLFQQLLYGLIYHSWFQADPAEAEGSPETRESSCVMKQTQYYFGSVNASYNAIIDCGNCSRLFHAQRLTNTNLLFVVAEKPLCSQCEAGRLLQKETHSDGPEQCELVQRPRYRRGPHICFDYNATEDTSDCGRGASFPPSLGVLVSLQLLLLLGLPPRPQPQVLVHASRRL
Chain of pig alpha-2-delta receptor 1 (A2DR1) (A0A287BIN3 1-1109): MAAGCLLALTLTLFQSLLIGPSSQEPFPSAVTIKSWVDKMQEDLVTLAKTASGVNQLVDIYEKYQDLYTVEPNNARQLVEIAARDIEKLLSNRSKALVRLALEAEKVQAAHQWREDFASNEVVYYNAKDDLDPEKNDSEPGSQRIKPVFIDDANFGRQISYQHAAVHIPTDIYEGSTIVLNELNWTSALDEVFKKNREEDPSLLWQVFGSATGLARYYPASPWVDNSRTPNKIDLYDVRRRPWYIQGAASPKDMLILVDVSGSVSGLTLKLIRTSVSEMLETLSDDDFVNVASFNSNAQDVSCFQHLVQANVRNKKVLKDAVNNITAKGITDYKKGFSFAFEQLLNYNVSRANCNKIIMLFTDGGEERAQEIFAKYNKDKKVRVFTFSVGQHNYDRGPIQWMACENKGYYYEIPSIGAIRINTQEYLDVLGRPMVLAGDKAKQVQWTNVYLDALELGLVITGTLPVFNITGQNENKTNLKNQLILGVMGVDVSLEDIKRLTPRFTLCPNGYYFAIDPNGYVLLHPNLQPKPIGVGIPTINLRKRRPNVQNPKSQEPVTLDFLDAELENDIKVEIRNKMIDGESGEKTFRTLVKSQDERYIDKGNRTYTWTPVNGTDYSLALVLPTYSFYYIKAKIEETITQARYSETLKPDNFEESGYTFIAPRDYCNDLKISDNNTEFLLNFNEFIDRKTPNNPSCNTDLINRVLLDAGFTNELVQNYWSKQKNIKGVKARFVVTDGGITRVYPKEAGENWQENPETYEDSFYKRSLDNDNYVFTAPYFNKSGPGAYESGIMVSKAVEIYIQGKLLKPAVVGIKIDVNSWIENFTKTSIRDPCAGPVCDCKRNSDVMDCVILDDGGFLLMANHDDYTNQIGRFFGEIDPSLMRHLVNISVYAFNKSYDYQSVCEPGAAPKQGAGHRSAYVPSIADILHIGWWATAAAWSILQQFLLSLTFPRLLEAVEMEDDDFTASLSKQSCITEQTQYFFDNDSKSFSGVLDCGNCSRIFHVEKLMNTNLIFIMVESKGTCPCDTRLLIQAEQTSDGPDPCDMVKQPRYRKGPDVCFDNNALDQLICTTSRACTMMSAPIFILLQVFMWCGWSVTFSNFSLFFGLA
Chain of alpha-2-delta receptor 1 (A2DR1) (P54289 25-1103): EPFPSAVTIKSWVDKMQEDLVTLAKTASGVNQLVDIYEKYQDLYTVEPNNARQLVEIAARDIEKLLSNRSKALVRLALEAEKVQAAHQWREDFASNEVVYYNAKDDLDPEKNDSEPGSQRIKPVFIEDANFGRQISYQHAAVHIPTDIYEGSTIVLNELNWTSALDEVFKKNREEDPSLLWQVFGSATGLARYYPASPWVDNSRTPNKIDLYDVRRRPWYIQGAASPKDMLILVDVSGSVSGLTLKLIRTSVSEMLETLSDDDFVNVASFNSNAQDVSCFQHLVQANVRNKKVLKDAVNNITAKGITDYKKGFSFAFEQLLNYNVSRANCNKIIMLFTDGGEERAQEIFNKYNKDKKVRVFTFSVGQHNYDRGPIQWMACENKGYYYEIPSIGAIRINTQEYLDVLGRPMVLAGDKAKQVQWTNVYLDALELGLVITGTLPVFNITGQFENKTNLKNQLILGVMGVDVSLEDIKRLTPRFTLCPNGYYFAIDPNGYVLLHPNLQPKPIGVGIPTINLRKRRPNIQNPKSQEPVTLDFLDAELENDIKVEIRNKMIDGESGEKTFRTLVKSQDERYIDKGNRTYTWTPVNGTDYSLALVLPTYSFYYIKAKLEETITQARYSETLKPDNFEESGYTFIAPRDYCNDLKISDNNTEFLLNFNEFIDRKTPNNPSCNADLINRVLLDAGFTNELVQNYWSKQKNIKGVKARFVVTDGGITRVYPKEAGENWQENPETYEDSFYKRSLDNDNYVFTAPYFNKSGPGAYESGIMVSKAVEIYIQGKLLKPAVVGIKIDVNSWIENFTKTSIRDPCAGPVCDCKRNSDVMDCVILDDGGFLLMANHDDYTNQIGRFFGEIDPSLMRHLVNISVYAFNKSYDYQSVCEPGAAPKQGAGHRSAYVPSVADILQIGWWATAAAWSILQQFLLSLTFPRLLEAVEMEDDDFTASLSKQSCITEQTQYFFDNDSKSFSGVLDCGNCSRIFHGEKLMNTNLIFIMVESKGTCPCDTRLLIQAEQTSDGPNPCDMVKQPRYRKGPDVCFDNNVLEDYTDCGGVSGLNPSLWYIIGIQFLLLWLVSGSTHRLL

| melting point | Structure (SMILES) | IC50 [1] | IC50 [2] | % I @ 10 mg/kg/day (%) (± SEM): inhibition of loss of hind limb joint function in MIA at Day 14 [3] | IC50 [4] | IC50 [5] |
| --- | --- | --- | --- | --- | --- | --- |
| 240 °C (dec.) | C1CC[C@@H]2N[C@H](c3nnn[nH]3)C[C@@H]2C1 |  |  |  |  |  |
| 188 to 190 °C | CCC1CC[C@@H]2C[C@@H](C(=O)O)N[C@@H]2C1.Cl (stereo partly drawn) |  |  |  |  |  |
| 200 to 205 °C | O=C(O)[C@@H]1C[C@H]2CCC(c3ccccc3)C[C@H]2N1 (stereo partly drawn) |  |  |  |  |  |
| 189 to 195 °C | CN(C)CCOC(=O)[C@@H]1C[C@@H]2CCCC[C@@H]2N1.Cl |  |  |  |  |  |
|  | CN1C(C(=O)O)C[C@@H]2CCCC[C@@H]21 (mixture of isomers) [Example A4] | ≥ 10 µM | ≥ 10 µM | 67 ± 8% | ≥ 10 µM |  |
|  | CC1(C(=O)O)C[C@@H]2CCCC[C@@H]2N1 (mixture of isomers) [Example B2] | ≥ 10 µM | ≥ 10 µM | 58 ± 12% | ≥ 10 µM | 2.83 µM |
| 247 to 249 °C | O=C(NS(=O)(=O)C(F)(F)F)[C@@H]1C[C@@H]2CCCC[C@@H]2N1 [Example E3] |  |  |  | ≥ 10 µM | ≥ 10 µM |
| 189 to 192 °C | CN1[C@H](C(=O)NS(=O)(=O)C(F)(F)F)C[C@@H]2CCCC[C@@H]21 [Example E4] |  |  |  | ≥ 10 µM | ≥ 10 µM |
|  | CC1CCC2NC(C(=O)O)CC2C1 (stereo not drawn) [Example O5] | ≥ 10 µM | 2.8 µM | −32 ± 20% | 0.29 µM | 0.11 µM |
|  | O=C(NC1CCC2NC(C(=O)O)CC2C1)C1CCCCC1 (stereo not drawn) [Example O6] |  |  | −48 ± 10% | ≥ 10 µM | ≥ 10 µM |
|  | NC1CCC2NC(C(=O)O)CC2C1 (stereo not drawn) [Example O7] |  |  | −63 ± 14% | ≥ 10 µM | ≥ 10 µM |
